In patent publication US7285556B2, “Thienopyrimidine-based inhibitors of the src family” (Board of Regents, The University of Texas Systems, priority 2000, dated 2007):
pIC50: −log10 of the molar value. Where two headings read alike, the source gives them in different places.

Target: T1, Recombinant human Src (Homo sapiens, UniProt P12931)
T1 construct: made in house; host or cells: baculovirus-insect cell system
Experiment: Src tyrosine kinase activity, poly E4Y and 32P-ATP
Format: biochemical
Experimental: Recombinant human Src was expressed using the baculovirus-insect cell system and purified as published (Budde et al., 1993 and 2000). Recombinant Csk and the FGF receptor (FGFr) were expressed as glutathione-S-transferase fusion proteins using the pGEX expression vector and E. coli, and purified as described (Sun & Budde, 1995).
The tyrosine kinase activity of Src, Csk and FGFr was determined using poly E4Y and ^32P-ATP. Briefly, enzymes were assayed in a reaction mixture consisting of 0.15 M EPPS-NaOH (pH 8.0) with 6 mM MgCl2, 0.2 mM γ^32P-ATP (0.2-0.4 mCi/μmol), 10% glycerol, 0.1% Triton X-100, and poly E4Y. Poly E4Y is a synthetic peptide whose phosphorylation is measured in this assay by the addition of the radioactively labeled phosphate from the ATP (Budde et al., 1995). […] When ATP was varied (0, 50, 100 and 250 μM), poly E4Y was kept constant at 150 μg/ml.

[1] = Table 2, read-out: Src IC50 (especially good inhibitors of Src)
[2] = read-out: IC50 (preferred compounds for treatment of Src family-related disease)

T1 sequence (P12931 whole entry): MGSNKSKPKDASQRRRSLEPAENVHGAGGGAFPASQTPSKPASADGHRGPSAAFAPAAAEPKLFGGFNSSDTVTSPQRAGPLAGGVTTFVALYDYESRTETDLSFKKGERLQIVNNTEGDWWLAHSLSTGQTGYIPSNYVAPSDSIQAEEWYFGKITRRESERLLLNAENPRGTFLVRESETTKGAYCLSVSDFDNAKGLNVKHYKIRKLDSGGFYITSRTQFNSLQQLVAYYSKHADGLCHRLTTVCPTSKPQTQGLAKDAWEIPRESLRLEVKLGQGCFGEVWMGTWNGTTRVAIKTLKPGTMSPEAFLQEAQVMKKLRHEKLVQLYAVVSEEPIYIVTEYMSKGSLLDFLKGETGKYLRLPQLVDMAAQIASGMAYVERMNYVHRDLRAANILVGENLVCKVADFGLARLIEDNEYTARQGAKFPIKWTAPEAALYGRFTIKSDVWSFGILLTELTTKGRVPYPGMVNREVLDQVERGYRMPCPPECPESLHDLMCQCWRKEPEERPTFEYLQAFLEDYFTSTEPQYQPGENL

SMILES	pIC50 [1]	pIC50 [2]
Cc1c(C(O)c2ccccc2)sc2c(NN=Cc3ccc(C(=O)O)cc3)ncnc12 (centres unmarked) [Compound 458, 4-Carboxybenzaldehyde(6-(1-hydroxy-1-phenyl)methyl-7-methylthieno[3,2-d]pyrimidin-4-yl)hydrazone]	≥ 5.70	> 5.70
Cc1c(C(O)c2ccccc2)sc2c(NN=Cc3cccs3)ncnc12 (centres unmarked) [Compound 459, 2-Thiophenecarboxaldehyde(6-(1-hydroxy-1-phenyl)methyl-7-methylthieno[3,2-d]pyrimidin-4-yl)hydrazone]	≥ 5.70	> 5.70
COc1ccc(C=NNc2ncnc3c(C)c(C(O)c4ccccc4)sc23)cc1O (centres unmarked) [Compound 460, 3-Hydroxy-4-methoxybenzaldehyde(6-(1-hydroxy-1-phenyl)methyl-7-methylthieno[3,2-d]pyrimidin-4-yl)hydrazone]	≥ 5.70	> 5.70
Cc1c(C(O)c2ccsc2)sc2c(NN=Cc3cccnc3)ncnc12 (centres unmarked) [Compound 461, 3-Pyridinecarboxaldehyde(6-(1-hydroxy-1-[3-thienyl])methyl-7-methylthieno[3,2-d]pyrimidin-4-yl)hydrazone]	≥ 5.70	> 5.70
Cc1c(C(O)c2ccsc2)sc2c(NN=Cc3ccc(C(=O)O)cc3)ncnc12 (centres unmarked) [Compound 462, 4-Carboxybenzaldehyde(6-(1-hydroxy-1-[3-thienyl])methyl-7-methylthieno[3,2-d]pyrimidin-4-yl)hydrazone]	≥ 5.70	> 5.70
Cc1c(C(O)c2ccsc2)sc2c(NN=Cc3cccs3)ncnc12 (centres unmarked) [Compound 463, 2-Thiophenecarboxaldehyde(6-(1-hydroxy-1-[3-thienyl])methyl-7-methylthieno[3,2-d]pyrimidin-4-yl)hydrazone]	≥ 5.70	> 5.70
COc1ccc(C=NNc2ncnc3c(C)c(C(O)c4ccsc4)sc23)cc1O (centres unmarked) [Compound 464, 3-Hydroxy-4-methoxybenzaldehyde(6-(1-hydroxy-1-[3-thienyl])methyl-7-methylthieno[3,2-d]pyrimidin-4-yl)hydrazone]	≥ 5.70	> 5.70
Cc1c(C(=O)O)sc2c(NN=Cc3cccnc3)ncnc12 [Compound 465, 3-Pyridinecarboxaldehyde(6-carboxy-7-methylthieno[3,2-d]pyrimidin-4-yl)hydrazone]	≥ 5.70	> 5.70
Cc1c(C(=O)O)sc2c(NN=Cc3ccc(C(=O)O)cc3)ncnc12 [Compound 466, 4-Carboxybenzaldehyde(6-carboxy-7-methylthieno[3,2-d]pyrimidin-4-yl)hydrazone]	≥ 5.70	> 5.70
Cc1c(C(O)C2CCCCC2)sc2c(NN=Cc3cccs3)ncnc12 (centres unmarked) [Compound 471, 2-Thiophenecarboxaldehyde(6-(1-cyclohexyl-1-hydroxy)methyl-7-methylthieno[3,2-d]pyrimidin-4-yl)hydrazone]	≥ 5.70	> 5.70
COc1ccc(C=NNc2ncnc3c(C)c(C(O)C4CCCCC4)sc23)cc1O (centres unmarked) [Compound 472, 3-Hydroxy-4-methoxybenzaldehyde(6-(1-cyclohexyl-1-hydroxy)methyl-7-methylthieno[3,2-d]pyrimidin-4-yl)hydrazone]	≥ 5.70	> 5.70
Cc1c(C(Cc2ccccc2)c2ccccc2)sc2c(NN=Cc3cccnc3)ncnc12 (centres unmarked) [Compound 473, 3-Pyridinecarboxaldehyde(6-(1-benzyl-1-phenyl)methyl-7-methylthieno[3,2-d]pyrimidin-4-yl)hydrazone]	≥ 5.70	> 5.70
Cc1c(C(Cc2ccccc2)c2ccccc2)sc2c(NN=Cc3cccs3)ncnc12 (centres unmarked) [Compound 474, 2-Thiophenecarboxaldehyde(6-(1-benzyl-1-phenyl)methyl-7-methylthieno[3,2-d]pyrimidin-4-yl)hydrazone]	≥ 5.70	> 5.70
Cc1c(CO)sc2c(NN=Cc3cccnc3)ncnc12 [Compound 476, 3-Pyridinecarboxaldehyde(6-hydroxymethyl-7-methylthieno[3,2-d]pyrimidin-4-yl)hydrazone]	≥ 5.70	> 5.70
Cc1c(CO)sc2c(NN=Cc3ccc(C(=O)O)cc3)ncnc12 [Compound 477, 4-Carboxybenzaldehyde(6-hydroxymethyl-7-methylthieno[3,2-d]pyrimidin-4-yl)hydrazone]	≥ 5.70	> 5.70
Cc1c(C(O)c2cccnc2)sc2c(NN=Cc3cccnc3)ncnc12 (centres unmarked) [Compound 483, 3-Pyridinecarboxaldehyde(6-(1-hydroxy-1-[3-pyridyl])methyl-7-methylthieno[3,2-d]pyrimidin-4-yl)hydrazone]	≥ 5.70	> 5.70
COc1ccc(C=NNc2ncnc3c(C)c(C(O)c4cccnc4)sc23)cc1O (centres unmarked) [Compound 486, 3-Hydroxy-4-methoxybenzaldehyde(6-(1-hydroxy-1-[3-pyridyl])methyl-7-methylthieno[3,2-d]pyrimidin-4-yl)hydrazone]	≥ 5.70	> 5.70

The remaining lines, values ahead:

pIC50 [1]	pIC50 [2]	SMILES
≥ 5.70	> 5.70	Cc1c(C(O)c2ccccc2)sc2c(NN=Cc3cccnc3)ncnc12 (centres unmarked) [Compound 457, 3-Pyridinecarboxaldehyde(6-(1-hydroxy-1-phenyl)methyl-7-methylthieno[3,2-d]pyrimidin-4-yl)hydrazone]
–	> 5.70	Cc1c(C(=O)O)sc2c(NN=Cc3cccs3)ncnc12 [Compound 467, 2-Thiophenecarboxaldehyde(6-carboxy-7-methylthieno[3,2-d]pyrimidin-4-yl)hydrazone]
≥ 5.70	> 5.70	COc1ccc(C=NNc2ncnc3c(C)c(C(=O)O)sc23)cc1O [Compound 468, 3-Hydroxy-4-methoxybenzaldehyde(6-carboxy-7-methylthieno[3,2-d]pyrimidin-4-yl)hydrazone]
≥ 5.70	> 5.70	Cc1c(C(O)C2CCCCC2)sc2c(NN=Cc3cccnc3)ncnc12 (centres unmarked) [Compound 469, 3-Pyridinecarboxaldehyde(6-(1-cyclohexyl-1-hydroxy)methyl-7-methylthieno[3,2-d]pyrimidin-4-yl)hydrazone]
≥ 5.70	> 5.70	Cc1c(C(O)C2CCCCC2)sc2c(NN=Cc3ccc(C(=O)O)cc3)ncnc12 (centres unmarked) [Compound 470, 4-Carboxybenzaldehyde(6-(1-cyclohexyl-1-hydroxy)methyl-7-methylthieno[3,2-d]pyrimidin-4-yl)hydrazone]
≥ 5.70	> 5.70	COc1ccc(C=NNc2ncnc3c(C)c(CO)sc23)cc1O [Compound 478, 3-Hydroxy-4-methoxybenzaldehyde(6-hydroxymethyl-7-methylthieno[3,2-d]pyrimidin-4-yl)hydrazone]
≥ 5.70	> 5.70	Cc1c(C(O)c2cccnc2)sc2c(NN=Cc3ccc(C(=O)O)cc3)ncnc12 (centres unmarked) [Compound 484, 4-Carboxybenzaldehyde(6-(1-hydroxy-1-[3-pyridyl])methyl-7-methylthieno[3,2-d]pyrimidin-4-yl)hydrazone]
≥ 5.70	> 5.70	Cc1c(C(O)c2cccnc2)sc2c(NN=Cc3cccs3)ncnc12 (centres unmarked) [Compound 485, 2-Thiophenecarboxaldehyde(6-(1-hydroxy-1-[3-pyridyl])methyl-7-methylthieno[3,2-d]pyrimidin-4-yl)hydrazone]
–	> 5.70	Cc1c(C(O)c2cccs2)sc2c(NN=Cc3cccnc3)ncnc12 (centres unmarked) [Compound 487, 3-Pyridinecarboxaldehyde(6-(1-hydroxy-1-[2-thienyl])methyl-7-methylthieno[3,2-d]pyrimidin-4-yl)hydrazone]
